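Following 48 hours of exposure in 96-well plates, responses at five concentrations were used to interpolate endpoints linearly. TGI: concentration producing complete growth inhibition.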 Bounds are passed on as bounds.

Experimental findings from PubChem BioAssay (NCI) are described below.

Some test systems named below: DU-145 prostate; HCC-2998 colon; HOP-92 NSCLC; MCF7 breast; RXF 393 renal; SF-268 CNS; SK-MEL-28 melanoma; TK-10 renal; MOLT-4 leukemia; NCI-H522 lung.
Holding throughout (assay): NCI anticancer screen, dose series, 48 h

Regarding `Cc1nc(C)c(C(=O)NNC(=O)C[N+](C)(C)C)cc1C(=O)NNC(=O)C[N+](C)(C)C`, the TGI in the experiment on DU-145 prostate, in the experiment on HCC-2998 colon, in the experiment on HOP-92 NSCLC, with MCF7 breast, with RXF 393 renal and in the experiment on SF-268 CNS was above 100 µM in each case. Also, the TGI in the experiment on SK-MEL-28 melanoma and with TK-10 renal was above 100 µM throughout.

Consider `O=C1c2cc(-c3ccccc3)cnc2S(=O)(=O)N1c1ccc(Br)cc1`, for which the TGI with DU-145 prostate was above 100 µM; in the experiment on HCC-2998 colon, 39.5 µM; with HOP-92 NSCLC, 72.1 µM; in the experiment on MCF7 breast, above 100 µM; in the experiment on MOLT-4 leukemia, above 100 µM; in the experiment on NCI-H522 lung, 54.6 µM. Further, the TGI with SF-268 CNS, with SK-MEL-28 melanoma and in the experiment on TK-10 renal was above 100 µM in each case.

On to `O=C1C=C/C(=N\N=C(c2ccccc2)c2ccccc2)O1`, for which the TGI in the experiment on DU-145 prostate, in the experiment with HCC-2998 colon, in the experiment with HOP-92 NSCLC, with MCF7 breast, in the experiment with MOLT-4 leukemia and in the experiment with RXF 393 renal was above 10 µM each time. Further, the TGI in the experiment with SF-268 CNS, in the experiment on SK-MEL-28 melanoma and in the experiment on TK-10 renal was above 10 µM in each case.

Take `COc1cc(OC)cc(C(=O)CC(=O)c2cc(OC)cc(OC)c2)c1`: the TGI in the experiment on DU-145 prostate, in the experiment on HCC-2998 colon, with HOP-92 NSCLC, with MCF7 breast, in the experiment with MOLT-4 leukemia and with RXF 393 renal was above 100 µM throughout. For the same molecule, the TGI with SF-268 CNS, in the experiment with SK-MEL-28 melanoma and in the experiment on TK-10 renal was above 100 µM throughout.

In the case of `N[C@@H](Cc1ccccc1)C(=O)N1CCC[C@@H]1P(=O)(Oc1ccccc1)Oc1ccccc1`, the TGI with DU-145 prostate, in the experiment on HCC-2998 colon, in the experiment with HOP-92 NSCLC, in the experiment on MCF7 breast, in the experiment with MOLT-4 leukemia and with RXF 393 renal was above 100 µM each time. For the same molecule, the TGI with SF-268 CNS, in the experiment on SK-MEL-28 melanoma and in the experiment with TK-10 renal was above 100 µM each time.

Regarding `CCOC(=O)c1c(-c2ccc(O)c(OC)c2)c(C#N)c(=S)n(C2OC(CO)C(O)C(O)C2O)c1-c1ccccc1` (stereo unspecified), the TGI in the experiment on DU-145 prostate, in the experiment on HCC-2998 colon, with HOP-92 NSCLC, in the experiment on MCF7 breast, with MOLT-4 leukemia and in the experiment on RXF 393 renal was above 100 µM in each case. For the same molecule, the TGI in the experiment with SF-268 CNS and in the experiment with SK-MEL-28 melanoma was above 100 µM in each case.

Regarding `O=C1NC2c3c(I)sc(I)c3C(O)C2O1` (stereo unspecified), the TGI in the experiment on DU-145 prostate, with HCC-2998 colon, in the experiment on HOP-92 NSCLC, in the experiment on MCF7 breast, in the experiment on MOLT-4 leukemia and with RXF 393 renal was above 100 µM each time. Also, the TGI in the experiment on SF-268 CNS, with SK-MEL-28 melanoma and with TK-10 renal was above 100 µM throughout.

Turning to `CCCNc1ncnc2c1ncn2C`, the TGI in the experiment on DU-145 prostate, with HCC-2998 colon, in the experiment on HOP-92 NSCLC, in the experiment with MCF7 breast, in the experiment on MOLT-4 leukemia and with NCI-H522 lung was above 100 µM in each case. In addition, the TGI in the experiment on RXF 393 renal, with SK-MEL-28 melanoma and with TK-10 renal was above 100 µM throughout.

With `COC(=O)C(Cc1ccc2c(c1)CCC2)Cc1ccc2c(c1)CCC2`, the TGI in the experiment with DU-145 prostate, in the experiment on HOP-92 NSCLC, in the experiment with MCF7 breast, in the experiment with MOLT-4 leukemia, with NCI-H522 lung and in the experiment on RXF 393 renal was above 100 µM throughout. The TGI in the experiment on SF-268 CNS, with SK-MEL-28 melanoma and in the experiment on TK-10 renal was above 100 µM throughout.

Consider `O=C(O)CCNc1ncnc2nc[nH]c12`, for which the TGI with DU-145 prostate, in the experiment on HCC-2998 colon, in the experiment on HOP-92 NSCLC, with MCF7 breast, in the experiment with NCI-H522 lung and in the experiment with RXF 393 renal was above 100 µM throughout. Moreover, the TGI in the experiment with SF-268 CNS, with SK-MEL-28 melanoma and with TK-10 renal was above 100 µM each time.

On to `C=CCn1c(=O)c(C(=O)Nc2nc(C34CC5CC(CC(C5)C3)C4)cs2)c(O)c2ccccc21`, for which the TGI is above 100 µM in the experiment with DU-145 prostate; above 100 µM in the experiment with HCC-2998 colon; 84.4 µM with HOP-92 NSCLC; above 100 µM with MCF7 breast; above 100 µM in the experiment with MOLT-4 leukemia; above 100 µM in the experiment on NCI-H522 lung. The TGI in the experiment on RXF 393 renal, in the experiment on SK-MEL-28 melanoma and with TK-10 renal was above 100 µM throughout.

For the molecule `C=CCc1cc(-c2nc(=S)[nH][nH]2)ccc1N=NNc1ccc(C(=O)O)cc1`, the TGI in the experiment on DU-145 prostate, in the experiment on HOP-92 NSCLC, with MCF7 breast, in the experiment on MOLT-4 leukemia, in the experiment on NCI-H522 lung and in the experiment with RXF 393 renal was above 100 µM in each case. Besides, the TGI in the experiment on SF-268 CNS, in the experiment with SK-MEL-28 melanoma and with TK-10 renal was above 100 µM each time.
